Measured values from patent US9682980B2, “Positive allosteric modulators of mGluR2” (BRISTOL-MYERS SQUIBB COMPANY, priority 2012, dated 2017).

Target: human mGluR2 (Homo sapiens (Human), UniProt Q14416)
Experiment: MGluR2 cAMP assay
Assay type: cell-based
Conditions: HEK293 cells clonally expressing human mGluR2, 1 μM forskolin, 1 μM LY-341495
Description: Clonally expressed human mGluR2 in HEK293 background was glutamate starved overnight in media without glutamine (GIBCO MEM 12360), containing 10% FBS, 1% penicillin streptomycin.
On the day of the assay, media was removed, cells washed with PBS, cells harvested and pelleted by centrifugation. Cell pellets were resuspended in stimulation buffer without forskolin and counted. A solution of 1.25×10^6 cells/ml was prepared and dispensed to plates using a Combi liquid handler (Thermo). A standard curve was created using a top concentration of cAMP of 1 μM in the stimulation buffer, 1:3 dilutions over 14 points in the absence of cells. Plates were read by time-resolved fluorescence at […] and a ratio was calculated via in house software, (665 nM/618 nM)*10^4. In house software converted the fluorescence value ratios to units of cAMP concentration, which is then used to calculate % inhibition for each test compound.
Compounds were added to white, standard volume 384 non-binding surface plates (Corning 3574). Cells were resuspended in stimulation buffer consisting of Hanks Balanced Salt Solution (14175-095) pH 7.0, 20 mM HEPES, 2.0 mM CaCl2, 5.0 mM MgCl2, and 1 mM IBMX (Sigma 15879), 1 μM forskolin, and 1 μM LY-341495, for 30 minutes. Buffer without forskolin was used as a negative control. Solutions of D2 and cryptate detection reagents from the CISBIO dynamic cAMP kit (62AM4PEJ) were diluted 1:40 in lysis buffer. Lysis buffer consisted of 50 mM Phosphate Buffer pH 7.0, 800 mM Potassium Fluoride, 0.2% BSA, and 1.0% Triton. Assay reaction was terminated by addition of detection reagents in lysis buffer. One hour later, plates were read on a PE Viewlux. Data was extracted, and concentration response curves generated by fitting the data to a standard 4 parameter logistic equation from which EC50 values were determined See table 1: A: <10 nM; B: 10-100 nM; C: 100-1000 nM; D: 1000-10000 nM.

human mGluR2, sequence (Q14416 19-872): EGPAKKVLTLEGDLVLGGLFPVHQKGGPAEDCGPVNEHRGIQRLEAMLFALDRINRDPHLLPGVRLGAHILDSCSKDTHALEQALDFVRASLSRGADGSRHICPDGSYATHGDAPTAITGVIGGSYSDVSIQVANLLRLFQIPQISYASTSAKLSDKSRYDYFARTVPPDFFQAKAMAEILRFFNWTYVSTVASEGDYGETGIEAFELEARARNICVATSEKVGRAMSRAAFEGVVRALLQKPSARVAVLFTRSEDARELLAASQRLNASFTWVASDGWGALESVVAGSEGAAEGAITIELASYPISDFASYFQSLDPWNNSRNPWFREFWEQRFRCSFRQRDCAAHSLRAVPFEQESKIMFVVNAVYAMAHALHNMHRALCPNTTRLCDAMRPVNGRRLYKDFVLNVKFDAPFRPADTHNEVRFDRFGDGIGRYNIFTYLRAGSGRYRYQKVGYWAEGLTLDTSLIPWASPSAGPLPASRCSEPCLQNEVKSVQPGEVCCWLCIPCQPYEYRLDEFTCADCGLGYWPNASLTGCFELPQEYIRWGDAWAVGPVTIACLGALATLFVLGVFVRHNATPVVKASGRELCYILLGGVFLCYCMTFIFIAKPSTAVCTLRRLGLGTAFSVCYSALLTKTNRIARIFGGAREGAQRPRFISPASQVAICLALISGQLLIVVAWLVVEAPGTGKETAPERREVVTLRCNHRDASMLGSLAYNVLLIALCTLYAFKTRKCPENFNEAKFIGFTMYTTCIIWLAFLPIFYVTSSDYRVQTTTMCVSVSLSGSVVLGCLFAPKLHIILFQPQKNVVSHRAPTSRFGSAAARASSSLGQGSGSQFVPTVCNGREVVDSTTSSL

Row | EC50 | Structure (SMILES)
1 | 0.286 µM | COc1c(N2CCC(c3ccc(F)cc3)CC2)ncn2c(CC(C)(C)C)nnc12 [Example 13, 7-(4-(4-Fluorophenyl)piperidin-1-yl)-8-methoxy-3-neopentyl-[1,2,4]triazolo[4,3-c]pyrimidine]
2 | 0.015 µM | N#Cc1ccccc1C1CCN(c2cnn3c(CC4CC4)nnc3c2Cl)CC1 [Example 72, 2-(1-(8-Chloro-3-(cyclopropylmethyl)-[1,2,4]triazolo[4,3-b]pyridazin-7-yl)piperidin-4-yl)benzonitrile]
3 | 0.437 µM | CC(C)(C)Cc1nnc2c(Cl)c(N3CCN(c4ncccn4)CC3)cnn12 [Example 16, 8-Chloro-3-neopentyl-7-(4-(pyrimidin-2-yl)piperazin-1-yl)-[1,2,4]triazolo[4,3-b]pyridazine]
4 | 0.0004 µM | COc1c(F)ccc(F)c1C1CCN(c2cnn3c(CC(F)(F)F)nnc3c2C(F)(F)F)CC1 [Example 81, 7-(4-(3,6-Difluoro-2-methoxyphenyl)piperidin-1-yl)-3-(2,2,2-trifluoroethyl)-8-(trifluoromethyl)-[1,2,4]triazolo[4,3-b]pyridazine]
5 | 0.046 µM | Fc1ccc(C2CCN(c3cnn4c(CC5CC5)nnc4c3Cl)CC2)cc1 [Example 17, 8-Chloro-3-(cyclopropylmethyl)-7-(4-(4-fluorophenyl)piperidin-1-yl)-[1,2,4]triazolo[4,3-b]pyridazine]
6 | 0.06 µM | Fc1ccc([C@H]2C[C@@H]2CNc2cnn3c(CC4CC4)nnc3c2Cl)cc1 [Example 11, 8-Chloro-3-(cyclopropylmethyl)-N-(((1S,2S)-2-(4-fluorophenyl)cyclopropyl)methyl)-[1,2,4]triazolo[4,3-b]pyridazin-7-amine]
7 | 0.809 µM | Clc1c(N2CCC(c3cccnc3)CC2)cnn2c(CC3CC3)nnc12 [Example 82, 8-Chloro-3-(cyclopropylmethyl)-7-(4-(pyridin-3-yl)piperidin-1-yl)-[1,2,4]triazolo[4,3-b]pyridazine]
8 | 0.034 µM | FC(F)(F)c1cccnc1C1CCN(c2cnn3c(CC4CC4)nnc3c2Cl)CC1 [Example 76, 8-Chloro-3-(cyclopropylmethyl)-7-(4-(3-(trifluoromethyl)pyridin-2-yl)piperidin-1-yl)-[1,2,4]triazolo[4,3-b]pyridazine]
9 | 0.145 µM | Clc1c(N2CCC3(C=Cc4ccccc43)CC2)cnn2c(CC3CC3)nnc12 [Example 20, 8-Chloro-3-(cyclopropylmethyl)-7-(spiro[indene-1,4′-piperidin]-1′-yl)-[1,2,4]triazolo[4,3-b]pyridazine]
10 | 0.018 µM | COc1ccc(C2CCN(c3cnn4c(CC5CC5)nnc4c3Cl)CC2)cc1 [Example 30, 8-Chloro-3-(cyclopropylmethyl)-7-(4-(4-methoxyphenyl)piperidin-1-yl)-[1,2,4]triazolo[4,3-b]pyridazine]
11 | 0.002 µM | Fc1ccc(F)c(C2CCN(c3cnn4c(CC5CC5)nnc4c3Cl)CC2)c1OC(F)F [Example 50, 8-Chloro-3-(cyclopropylmethyl)-7-(4-(2-(difluoromethoxy)-3,6-difluorophenyl)piperidin-1-yl)-[1,2,4]triazolo[4,3-b]pyridazine]
12 | 0.733 µM | FC(F)(F)Cc1nnc2c(Cl)c(NC3CCC(c4ccccc4)CC3)cnn12 (centres unmarked) [Example 64, 8-Chloro-N-(4-phenylcyclohexyl)-3-(2,2,2-trifluoroethyl)-[1,2,4]triazolo[4,3-b]pyridazin-7-amine]
13 | 0.145 µM | CC(C)(C)Cc1nnc2c(Cl)c(N3CCC(c4ccc(F)cc4)CC3)cnn12 [Example 18, 8-Chloro-7-(4-(4-fluorophenyl)piperidin-1-yl)-3-neopentyl-[1,2,4]triazolo[4,3-b]pyridazine]
14 | 0.217 µM | Clc1c(N2CCC(c3ccccc3)CC2)cnn2c(Cc3ccccc3)nnc12 [Example 57, 3-Benzyl-8-chloro-7-(4-phenylpiperidin-1-yl)-[1,2,4]triazolo[4,3-b]pyridazine]
15 | 0.014 µM | Fc1ccc(C2CCN(c3cnn4c(CC5CC5)nnc4c3Cl)CC2)c(F)c1 [Example 74, 8-Chloro-3-(cyclopropylmethyl)-7-(4-(2,4-difluorophenyl)piperidin-1-yl)-[1,2,4]triazolo[4,3-b]pyridazine]
16 | 0.144 µM | Clc1cc(Cl)cc(C2CCN(c3cnn4c(CC5CC5)nnc4c3Cl)CC2)c1 [Example 47, 8-Chloro-3-(cyclopropylmethyl)-7-(4-(3,5-dichlorophenyl)piperidin-1-yl)-[1,2,4]triazolo[4,3-b]pyridazine]

Row | EC50 | Structure (SMILES)
17 | 0.021 µM | Cc1ccccc1C1CCN(c2cnn3c(CC4CC4)nnc3c2Cl)CC1 [Example 29, 8-Chloro-3-(cyclopropylmethyl)-7-(4-(o-tolyl)piperidin-1-yl)-[1,2,4]triazolo[4,3-b]pyridazine]
18 | 0.01 µM | COc1cc(OC)nc(C2CCN(c3cnn4c(CC(F)(F)F)nnc4c3Cl)CC2)n1 [Example 43, 8-Chloro-7-(4-(4,6-dimethoxypyrimidin-2-yl)piperidin-1-yl)-3-(2,2,2-trifluoroethyl)-[1,2,4]triazolo[4,3-b]pyridazine]
19 | 0.007 µM | N#Cc1ccccc1C1CCN(c2cnn3c(CC(F)(F)F)nnc3c2C(F)(F)F)CC1 [Example 78, 2-(1-(3-(2,2,2-Trifluoroethyl)-8-(trifluoromethyl)-[1,2,4]triazolo[4,3-b]pyridazin-7-yl)piperidin-4-yl)benzonitrile]
20 | 0.008 µM | Clc1c(N2CCC(c3ccccc3)CC2)ncn2c(CC3CC3)nnc12 [Example 1, 8-Chloro-3-(cyclopropylmethyl)-7-(4-phenylpiperidin-1-yl)-[1,2,4]triazolo[4,3-c]pyrimidine]
21 | 0.009 µM | COc1ccccc1C1CCN(c2cnn3c(CC4CC4)nnc3c2Cl)CC1 [Example 27, 8-Chloro-3-(cyclopropylmethyl)-7-(4-(2-methoxyphenyl)piperidin-1-yl)-[1,2,4]triazolo[4,3-b]pyridazine]
22 | 0.038 µM | COC(=O)c1ccccc1C1CCN(c2cnn3c(CC4CC4)nnc3c2Cl)CC1 [Example 31, Methyl 2-(1-(8-chloro-3-(cyclopropylmethyl)-[1,2,4]triazolo[4,3-b]pyridazin-7-yl)piperidin-4-yl)benzoate]
23 | 0.519 µM | COc1c(N2CCC(c3ccc(F)cc3)CC2)ncn2c(CC3CC3)nnc12 [Example 12, 3-(Cyclopropylmethyl)-7-(4-(4-fluorophenyl)piperidin-1-yl)-8-methoxy-[1,2,4]triazolo[4,3-c]pyrimidine]
24 | 0.263 µM | FC(F)(F)Cc1nnc2c(Cl)c(N3CCC(c4cc(Cl)cc(Cl)c4)CC3)cnn12 [Example 48, 8-Chloro-7-(4-(3,5-dichlorophenyl)piperidin-1-yl)-3-(2,2,2-trifluoroethyl)-[1,2,4]triazolo[4,3-b]pyridazine]
25 | 0.649 µM | COc1cccc(F)c1C1CCN(c2cc3nnc(CC4CC4)n3cn2)CC1 [Example 34, 3-(Cyclopropylmethyl)-7-(4-(2-fluoro-6-methoxyphenyl)piperidin-1-yl)-[1,2,4]triazolo[4,3-c]pyrimidine]
26 | 0.275 µM | Clc1c(N2CCC(c3ccncc3)CC2)cnn2c(CC3CC3)nnc12 [Example 41, 8-Chloro-3-(cyclopropylmethyl)-7-(4-(pyridin-4-yl)piperidin-1-yl)-[1,2,4]triazolo[4,3-b]pyridazine]
27 | 0.021 µM | Fc1cc(F)c(OC(F)F)c(C2CCN(c3cnn4c(CC(F)(F)F)nnc4c3Cl)CC2)c1 [Example 55, 8-Chloro-7-(4-(2-(difluoromethoxy)-3,5-difluorophenyl)piperidin-1-yl)-3-(2,2,2-trifluoroethyl)-[1,2,4]triazolo[4,3-b]pyridazine]
28 | 0.048 µM | FC(F)(F)Cc1nnc2c(Cl)c(N3CCC(c4ccccc4Cl)CC3)cnn12 [Example 45, 8-Chloro-7-(4-(2-chlorophenyl)piperidin-1-yl)-3-(2,2,2-trifluoroethyl)-[1,2,4]triazolo[4,3-b]pyridazine]
29 | 0.036 µM | FC(F)(F)c1ccccc1C1CCN(c2cnn3c(CC4CC4)nnc3c2Cl)CC1 [Example 65, 8-Chloro-3-(cyclopropylmethyl)-7-(4-(2-(trifluoromethyl)phenyl)piperidin-1-yl)-[1,2,4]triazolo[4,3-b]pyridazine]
30 | 0.004 µM | N#Cc1ccccc1C1CCN(c2cnn3c(CC4CC4)nnc3c2C(F)(F)F)CC1 [Example 77, 2-(1-(3-(Cyclopropylmethyl)-8-(trifluoromethyl)-[1,2,4]triazolo[4,3-b]pyridazin-7-yl)piperidin-4-yl)benzonitrile]
31 | 0.154 µM | Clc1cccc(C2CCN(c3cnn4c(CC5CC5)nnc4c3Cl)CC2)c1Cl [Example 46, 8-Chloro-3-(cyclopropylmethyl)-7-(4-(2,3-dichlorophenyl)piperidin-1-yl)-[1,2,4]triazolo[4,3-b]pyridazine]
32 | 0.614 µM | Fc1ccc(N2CCN(c3cnn4c(CC5CC5)nnc4c3Cl)CC2)cc1 [Example 19, 8-Chloro-3-(cyclopropylmethyl)-7-(4-(4-fluorophenyl)piperazin-1-yl)-[1,2,4]triazolo[4,3-b]pyridazine]
